From article PMC10762035, “Molecular basis of human trace amine-associated receptor 1 activation” (Nature Communications, 2024)
Substitutions are numbered along the chain they refer to. Several values for one entry are separate records, joined by “and”; a condition that tells them apart may be missing. Equal values may be shown once.

Key:
Assay type in all cases: cell-based
hTA1 b2N = biological target: T1, hTA1 b2N (Homo sapiens, UniProt Q96RJ0); test: GloSensor cAMP accumulation assay, b2N construct; details: b2N, n=2
T1 construct: read by me as the first 25 residues of β2AR (N); expressed in transfected cells; host or cells: HEK293T
T1 sequence (Q96RJ0 with tags, fused parts or gaps): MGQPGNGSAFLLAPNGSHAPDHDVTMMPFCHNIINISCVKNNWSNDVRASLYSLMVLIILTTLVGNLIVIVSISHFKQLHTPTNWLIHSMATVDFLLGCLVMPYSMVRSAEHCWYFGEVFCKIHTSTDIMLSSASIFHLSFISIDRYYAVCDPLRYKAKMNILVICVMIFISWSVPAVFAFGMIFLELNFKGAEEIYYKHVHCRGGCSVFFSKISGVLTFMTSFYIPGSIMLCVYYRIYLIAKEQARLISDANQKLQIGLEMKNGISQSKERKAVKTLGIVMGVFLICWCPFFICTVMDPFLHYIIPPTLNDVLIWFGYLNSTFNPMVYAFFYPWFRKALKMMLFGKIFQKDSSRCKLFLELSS

hTA1 C13S = biological target: T2, hTA1 C13S (Homo sapiens, UniProt Q96RJ0, C13S); test: GloSensor cAMP accumulation assay, C13S mutant; details: for C13S - Normalized Luminescence Counts (N=2): log[Compound], single wells
T2 construct: expressed in transfected cells; host or cells: HEK293T
T2 sequence (Q96RJ0 1-339 C13S): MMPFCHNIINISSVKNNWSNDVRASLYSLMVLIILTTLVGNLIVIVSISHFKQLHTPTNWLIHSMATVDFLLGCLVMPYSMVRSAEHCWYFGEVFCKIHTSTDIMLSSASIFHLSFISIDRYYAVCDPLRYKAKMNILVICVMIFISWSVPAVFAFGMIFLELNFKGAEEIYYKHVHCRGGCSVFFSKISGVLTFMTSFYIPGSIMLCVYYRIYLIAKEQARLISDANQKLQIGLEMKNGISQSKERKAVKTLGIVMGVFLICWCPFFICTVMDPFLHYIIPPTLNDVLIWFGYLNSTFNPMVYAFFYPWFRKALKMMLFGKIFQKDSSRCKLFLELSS

hTA1 C88S = biological target: T3, hTA1 C88S (Homo sapiens, UniProt Q96RJ0, C88S); test: GloSensor cAMP accumulation assay, C88S mutant; details: C88S
T3 construct: expressed in transfected cells; host or cells: HEK293T
T3 sequence (Q96RJ0 1-339 C88S): T2 sequence (Q96RJ0 1-339 C13S) with S13C, C88S

hTA1 V184P = biological target: T4, hTA1 V184P (Homo sapiens, UniProt Q96RJ0, V184P); test: GloSensor cAMP accumulation assay, V184P mutant; details: for cAMP accumulation response, single replicate values (source data, Supplementary Figure 5): hTA1 V184P (N=2), log[Compound]
T4 construct: expressed in transfected cells; host or cells: HEK293T
T4 sequence (Q96RJ0 1-339 V184P): T2 sequence (Q96RJ0 1-339 C13S) with S13C, V184P

For NCCc1ccccc1 [β-PEA, β-phenethylamine], the “Span ± SEM (Emax normalized to β-PEA)” value (hTA1 b2N) was 100 ± 3.11, the “pEC50 ± SEM” value (hTA1 b2N) was 7.59 ± 0.07 and the EC50 (hTA1 b2N; read-out: EC50) was 0.0255 µM. For the same compound, the “ΔEmax values (each mutant value - WT average)” value (hTA1 C13S; C13S) was 0, the “ΔpEC50 values (each mutant value - WT average)” value (hTA1 C13S; C13S) was -0.3351 and -0.4017 and the Emax values (hTA1 C13S; C13S, Mean of fit per experiment) was 100. For the same compound, the “Span ± SEM (Emax normalized to β-PEA)” value (hTA1 C13S; C13S, n=2) was 100 ± 2.41, the “pEC50 ± SEM” value (hTA1 C13S; C13S, n=2) was 6.73 ± 0.05 and the EC50 (hTA1 C13S; C13S, n=2, read-out: EC50) was 0.188 µM. The “pEC50 values, Mean” value (hTA1 C13S; hTA1 C13S, mean of 3 replicates, one line per independent experiment) was 6.758 and 6.6918, the “C13S - Normalized Luminescence Counts (N=2)” value (hTA1 C13S; M = -5) was 99.2705 and 93.6371 and 125.268 and 108.514 and 91.163 and 111.602 and the “C13S - Normalized Luminescence Counts (N=2)” value (hTA1 C13S; M = -5.522) was 84.5018 and 89.7165 and 90.3636 and 93.2337 and 75.9363 and 100.338. For the same compound, the “C13S - Normalized Luminescence Counts (N=2)” value (hTA1 C13S; M = -6) was 78.7162 and 86.7856 and 86.6715 and 80.2383 and 65.7078 and 88.5033, the “C13S - Normalized Luminescence Counts (N=2)” value (hTA1 C13S; M = -6.522) was 64.3281 and 49.293 and 64.0617 and 65.0295 and 54.7831 and 70.7417 and the Emax values (hTA1 C88S; Mean of fit per experiment) was 100. For the same compound, the pEC50 values (hTA1 C88S; Mean of fit per experiment) was 7.013 and 7.137, the “Span ± SEM (Emax normalized to β-PEA)” value (hTA1 C88S; n=2) was 100 ± 2.93 and the “pEC50 ± SEM” value (hTA1 C88S; n=2) was 7.08 ± 0.06. For the same compound, the EC50 (hTA1 C88S; n=2, read-out: EC50) was 0.0841 µM, the “reduction in potency vs wild type” value (hTA1 V184P; V184P) was 3 fold and the “Span ± SEM (Emax normalized to β-PEA)” value (hTA1 V184P; V184P, n=2) was 100 ± 1.96. For the same compound, the “pEC50 ± SEM” value (hTA1 V184P; V184P, n=2) was 6.49 ± 0.04, the EC50 (hTA1 V184P; V184P, n=2, read-out: EC50) was 0.321 µM and the “cAMP accumulation response, single replicate values (source data, Supplementary Figure 5)” value (shortened to “cAMP accumulation response”) (hTA1 V184P; M = -5) was 83.3536 and 92.5674 and 99.6475 and 104.399 and 96.8854 and 100.441. The “cAMP accumulation response” value (hTA1 V184P; M = -5.522) was 95.962 and 88.397 and 84.7115 and 96.8487 and 73.2445 and 97.875, the “cAMP accumulation response” value (hTA1 V184P; M = -6) was 78.5043 and 69.7754 and 70.1634 and 94.7595 and 71.9984 and 76.7632 and the “cAMP accumulation response” value (hTA1 V184P; M = -6.522) was 42.813 and 37.5757 and 33.5992 and 65.1077 and 56.2745 and 55.2115. For the same compound, the “cAMP accumulation response” value (hTA1 V184P; M = -7) was 14.3957 and 16.7234 and 14.2987 and 30.7277 and 25.9995 and 32.4504, the “cAMP accumulation response” value (hTA1 V184P; M = -7.522) was 8.4795 and 4.503 and 3.727 and 12.5114 and 6.1339 and 9.909 and the “cAMP accumulation response” value (hTA1 V184P; M = -8) was 2.078 and 0.1386 and 0.7205 and 5.731 and 6.5 and 4.265. The “cAMP accumulation response” value (hTA1 V184P; M = -8.522) was 1.496 and -0.05538 and 0.3326 and 2.249 and 1.809 and 2.505, the “cAMP accumulation response” value (hTA1 V184P; M = -9) was 1.011 and 0.1386 (2×) and 2.652 and -0.3902 and 1.626 and the “cAMP accumulation response” value (hTA1 V184P; M = -9.522) was 0.7205 and -0.2494 and 0.4296 and -0.02371 and -1.123 and -0.1703. For the same compound, the “cAMP accumulation response” value (hTA1 V184P; M = -10) was 1.205 and -0.05538 and 0.3326 and -0.207 and -0.5002 and 0.4161, the “cAMP accumulation response” value (hTA1 V184P; M = -10.522) was 0.8175 and 0.6235 and -0.1524 and -0.3169 and -1.27 and -0.6101 and the “cAMP accumulation response” value (hTA1 V184P; M = -11) was 0.04161 and -0.4433 and -0.1524 and 0.5261 and 0.1229 and -0.4269. For the same compound, the “cAMP accumulation response” value (hTA1 V184P; M = -11.522) was 1.205 and 0.1386 and 0.2356 and 0.7826 and 0.5261 and 0.3062 and the “cAMP accumulation response” value (hTA1 V184P; M = -12) was 0.8175 (3×) and -0.3902 and -0.5735 and 0.0496.
